Here are results for 28 compounds from patent US11446287B2, “Compounds and methods for EP300 or CBP modulation and indications therefor” (Opna Immuno-Oncology SA, priority 2019, dated 2022).

The target in the test is T1, Recombinant human BRD4 containing dual bromodomains (BRD4-BD12 (1-477)) (Homo sapiens, UniProt O60885).
T1 construct: Recombinant human BRD4 containing dual bromodomains (BRD4-BD12 (1-477)); made in house; host or cells: E. coli BL21-CodonPlus (DE3), modified pET vector
The test is described as follows: BRD4 Alphascreen binding assay. The essentials:
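AlphaScreen proximity between Ni-chelate-bound BRD4-BD12 (1-477) and streptavidin-captured H4 K5/K8/K12/K16-acetyl peptide measured after 1 h room-temperature compound incubation and 30 min with 7.5 μg/ml beads. Buffer: 50 mM HEPES pH 7.5, 50 mM NaCl, 0.01% BSA, 0.01% Triton X-100; data plate-normalized and four-parameter fit for IC50.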
On the technique in general: Bead proximity is the source of the signal in Alpha formats.

With `Cc1noc(C)c1-c1cnc2c(c1)c(-c1ccc(C(=O)O)cc1OC1CC1)cn2-c1ncccc1C#N` [P-0337, 4-(1-(3-cyanopyridin-2-yl)-5-(3,5-dimethylisoxazol-4-yl)-1H-pyrrolo[2,3-b]pyridin-3-yl)-3-cyclopropoxybenzoic acid], the IC50 is 8 to 1000 µM.

Turning to `Cc1noc(C)c1-c1cnc2c(c1)c(-c1ccc(C(=O)O)cc1OCC(F)F)cn2C(C1CC1)C1CC1` [P-0338, 4-(1-(dicyclopropylmethyl)-5-(3,5-dimethylisoxazol-4-yl)-1H-pyrrolo[2,3-b]pyridin-3-yl)-3-(2,2-difluoroethoxy)benzoic acid], the IC50 was 8 to 1000 µM.

With `COc1cc(C(=O)O)ncc1-c1cn(C(C2CC2)C2CC2)c2ncc(-c3c(C)noc3C)cc12` [P-0339, 5-(1-(dicyclopropylmethyl)-5-(3,5-dimethylisoxazol-4-yl)-1H-pyrrolo[2,3-b]pyridin-3-yl)-4-methoxypicolinic acid], the IC50 lay in the range of 1 to 8 µM.

Turning to `Cc1noc(C)c1-c1cnc2c(c1)c(-c1c(Cl)cc(C(=O)O)cc1OCC(F)F)cn2C(C1CC1)C1CC1` [P-0340, 3-chloro-4-(1-(dicyclopropylmethyl)-5-(3,5-dimethylisoxazol-4-yl)-1H-pyrrolo[2,3-b]pyridin-3-yl)-5-(2,2-difluoroethoxy)benzoic acid], the IC50 was in the range of 8 to 1000 µM.

Turning to `Cc1noc(C)c1-c1cnc2c(c1)c(-c1ccc(C(=O)O)cc1OC1CCC1)cn2C1CCOCC1` [P-0341, 3-cyclobutoxy-4-(5-(3,5-dimethylisoxazol-4-yl)-1-(tetrahydro-2H-pyran-4-yl)-1H-pyrrolo[2,3-b]pyridin-3-yl)benzoic acid], the half-maximal inhibitory concentration (IC50) was in the range of 8 to 1000 µM.

With `Cc1noc(C)c1-c1cnc2c(c1)c(-c1ccc(C(=O)O)cc1OC(C)C)c(C)n2C(C1CC1)C1CC1` [P-0342, 4-(1-(dicyclopropylmethyl)-5-(3,5-dimethylisoxazol-4-yl)-2-methyl-1H-pyrrolo[2,3-b]pyridin-3-yl)-3-isopropoxybenzoic acid], the IC50 is 8 to 1000 µM.

On to `Cc1noc(C)c1-c1cnc2c(c1)c(-c1ccc(C(=O)O)cc1OC(F)(F)F)c(C)n2C(C1CC1)C1CC1` [P-0343, 4-(1-(dicyclopropylmethyl)-5-(3,5-dimethylisoxazol-4-yl)-2-methyl-1H-pyrrolo[2,3-b]pyridin-3-yl)-3-(trifluoromethoxy)benzoic acid], for which the IC50 was 8 to 1000 µM.

Turning to `Cc1noc(C)c1-c1ccc2c(c1)c(-c1ccc(C(=O)O)cc1OC(F)(F)F)cn2C(C1CC1)C1CC1` [P-0344, 4-(1-(dicyclopropylmethyl)-5-(3,5-dimethylisoxazol-4-yl)-1H-indol-3-yl)-3-(trifluoromethoxy)benzoic acid], the IC50 is 8 to 1000 µM.

Take `Cc1noc(C)c1-c1cnc2c(c1)c(-c1ccc(C(=O)O)cc1OC(F)(F)F)c(C)n2-c1ncccc1C#N` [P-0345, 4-(1-(3-cyanopyridin-2-yl)-5-(3,5-dimethylisoxazol-4-yl)-2-methyl-1H-pyrrolo[2,3-b]pyridin-3-yl)-3-(trifluoromethoxy)benzoic acid]: the IC50 was 8 to 1000 µM.

For the compound `Cc1noc(C)c1-c1cnc2c(c1)c(-c1c(Cl)cc(C(=O)O)cc1OC(F)(F)F)cn2[C@H]1CCOC1` [P-0346, (S)-3-chloro-4-(5-(3,5-dimethylisoxazol-4-yl)-1-(tetrahydrofuran-3-yl)-1H-pyrrolo[2,3-b]pyridin-3-yl)-5-(trifluoromethoxy)benzoic acid], the IC50 fell in the range of 8 to 1000 µM.

In the case of `Cc1noc(C)c1-c1cnc2c(c1)c(-c1ccc(C(=O)O)cc1OC1CCC1)cn2-c1cnc(N2CCC2)nc1` [P-0347, 4-(1-(2-(azetidin-1-yl)pyrimidin-5-yl)-5-(3,5-dimethylisoxazol-4-yl)-1H-pyrrolo[2,3-b]pyridin-3-yl)-3-cyclobutoxybenzoic acid], the IC50 lay in the range of 8 to 1000 µM.

Consider `Cc1noc(C)c1-c1cnc2c(c1)c(-c1c(F)cc(C(=O)O)cc1OCC(F)F)cn2-c1cnc(N2CCC2)nc1` [P-0348, 4-(1-(2-(azetidin-1-yl)pyrimidin-5-yl)-5-(3,5-dimethylisoxazol-4-yl)-1H-pyrrolo[2,3-b]pyridin-3-yl)-3-(2,2-difluoroethoxy)-5-fluorobenzoic acid], for which the IC50 lay within 8 to 1000 µM.

Consider `Cc1nn(C(F)F)cc1-n1cc(-c2ccc(C(=O)O)cc2OCC(F)F)c2cc(-c3c(C)noc3C)cnc21` [P-0349, 3-(2,2-difluoroethoxy)-4-(1-(1-(difluoromethyl)-3-methyl-1H-pyrazol-4-yl)-5-(3,5-dimethylisoxazol-4-yl)-1H-pyrrolo[2,3-b]pyridin-3-yl)benzoic acid], for which the IC50 was in the range of 8 to 1000 µM.

Consider `Cc1noc(C)c1-c1cnc2c(c1)c(-c1ccc(C(=O)O)cc1OC1CCC1)cn2[C@H]1CCOC1` [P-0350, (S)-3-cyclobutoxy-4-(5-(3,5-dimethylisoxazol-4-yl)-1-(tetrahydrofuran-3-yl)-1H-pyrrolo[2,3-b]pyridin-3-yl)benzoic acid], for which the IC50 fell in the range of 8 to 1000 µM.

Turning to `Cc1nn(C(F)F)cc1-n1cc(-c2ccc(C(=O)O)cc2OC2CCC2)c2cc(-c3c(C)noc3C)cnc21` [P-0351, 3-cyclobutoxy-4-(1-(1-(difluoromethyl)-3-methyl-1H-pyrazol-4-yl)-5-(3,5-dimethylisoxazol-4-yl)-1H-pyrrolo[2,3-b]pyridin-3-yl)benzoic acid], the IC50 lay within 8 to 1000 µM.

In the case of `Cc1noc(C)c1-c1cnc2c(c1)c(-c1c(Cl)cc(C(=O)O)cc1OCC(F)F)cn2-c1cnn(C(F)F)c1C` [P-0352, 3-chloro-5-(2,2-difluoroethoxy)-4-(1-(1-(difluoromethyl)-5-methyl-1H-pyrazol-4-yl)-5-(3,5-dimethylisoxazol-4-yl)-1H-pyrrolo[2,3-b]pyridin-3-yl)benzoic acid], the IC50 lay within 1 to 8 µM.

On to `Cc1noc(C)c1-c1cnc2c(c1)c(-c1ccc(C(=O)O)cc1OC1CCC1)cn2-c1cnn(C(F)F)c1C` [P-0353, 3-cyclobutoxy-4-(1-(1-(difluoromethyl)-5-methyl-1H-pyrazol-4-yl)-5-(3,5-dimethylisoxazol-4-yl)-1H-pyrrolo[2,3-b]pyridin-3-yl)benzoic acid], for which the IC50 lay within 8 to 1000 µM.

Consider `Cc1noc(C)c1-c1cnc2c(c1)c(-c1ccc(C(=O)O)cc1OC(C)C)cn2-c1cnn(C(F)F)c1C` [P-0354, 4-(1-(1-(difluoromethyl)-5-methyl-1H-pyrazol-4-yl)-5-(3,5-dimethylisoxazol-4-yl)-1H-pyrrolo[2,3-b]pyridin-3-yl)-3-isopropoxybenzoic acid], for which the IC50 is 8 to 1000 µM.

Regarding `Cc1noc(C)c1-c1cnc2c(c1)c(-c1c(Cl)cc(C(=O)O)cc1OC(F)(F)F)cn2C1CCOCC1` [P-0355, 3-chloro-4-(5-(3,5-dimethylisoxazol-4-yl)-1-(tetrahydro-2H-pyran-4-yl)-1H-pyrrolo[2,3-b]pyridin-3-yl)-5-(trifluoromethoxy)benzoic acid], the IC50 was in the range of 1 to 8 µM.

`Cc1noc(C)c1-c1cnc2c(c1)c(-c1c(Cl)cc(C(=O)O)cc1OC1CCC1)cn2C(C1CC1)C1CC1` [P-0356, 3-chloro-5-cyclobutoxy-4-(1-(dicyclopropylmethyl)-5-(3,5-dimethylisoxazol-4-yl)-1H-pyrrolo[2,3-b]pyridin-3-yl)benzoic acid]: the IC50 was 1 to 8 µM.

As for `Cc1noc(C)c1-c1cnc2c(c1)c(-c1ccc(C(=O)O)cc1OC(C)C)cn2C1CCOCC1` [P-0357, 4-(5-(3,5-dimethylisoxazol-4-yl)-1-(tetrahydro-2H-pyran-4-yl)-1H-pyrrolo[2,3-b]pyridin-3-yl)-3-isopropoxybenzoic acid], the IC50 is 8 to 1000 µM.

In the case of `Cc1noc(C)c1-c1cnc2c(c1)c(-c1c(Cl)cc(C(=O)O)cc1OC1CCC1)cn2C1CCOCC1` [P-0358, 3-chloro-5-cyclobutoxy-4-(5-(3,5-dimethylisoxazol-4-yl)-1-(tetrahydro-2H-pyran-4-yl)-1H-pyrrolo[2,3-b]pyridin-3-yl)benzoic acid], the IC50 lay within 1 to 8 µM.

For `Cc1noc(C)c1-c1cnc2c(c1)c(-c1c(Cl)cc(C(=O)O)cc1OCC(F)F)cn2C1CCOCC1` [P-0359, 3-chloro-5-(2,2-difluoroethoxy)-4-(5-(3,5-dimethylisoxazol-4-yl)-1-(tetrahydro-2H-pyran-4-yl)-1H-pyrrolo[2,3-b]pyridin-3-yl)benzoic acid], the IC50 was 8 to 1000 µM.

For the compound `CCOc1cc(C(=O)O)c(F)cc1-c1cn([C@H]2CCOC2)c2ncc(-c3c(C)noc3C)cc12` [P-0360, (S)-4-(5-(3,5-dimethylisoxazol-4-yl)-1-(tetrahydrofuran-3-yl)-1H-pyrrolo[2,3-b]pyridin-3-yl)-5-ethoxy-2-fluorobenzoic acid], the IC50 fell in the range of 8 to 1000 µM.

Take `Cc1noc(C)c1-c1cnc2c(c1)c(-c1c(Cl)cc(C(=O)O)cc1OC1CCC1)cn2[C@H]1CCOC1` [P-0361, (S)-3-chloro-5-cyclobutoxy-4-(5-(3,5-dimethylisoxazol-4-yl)-1-(tetrahydrofuran-3-yl)-1H-pyrrolo[2,3-b]pyridin-3-yl)benzoic acid]: the half-maximal inhibitory concentration (IC50) was in the range of 8 to 1000 µM.

In the case of `COc1cc(C(=O)O)ncc1-c1cn(C2CCOCC2)c2ncc(-c3c(C)noc3C)cc12` [P-0362, 5-(5-(3,5-dimethylisoxazol-4-yl)-1-(tetrahydro-2H-pyran-4-yl)-1H-pyrrolo[2,3-b]pyridin-3-yl)-4-methoxypicolinic acid], the IC50 was in the range of 0.0001 to 1 µM.

Take `Cc1noc(C)c1-c1cnc2c(c1)c(-c1c(Cl)cc(C(=O)O)cc1OC1CC1)cn2C(C1CC1)C1CC1` [P-0363, 3-chloro-5-cyclopropoxy-4-(1-(dicyclopropylmethyl)-5-(3,5-dimethylisoxazol-4-yl)-1H-pyrrolo[2,3-b]pyridin-3-yl)benzoic acid]: the IC50 was 1 to 8 µM.

With `Cc1noc(C)c1-c1cnc2c(c1)c(-c1ccc(C(=O)O)cc1OC(F)(F)F)cn2CC1(C#N)CCC1` [P-0364, 4-(1-((1-cyanocyclobutyl)methyl)-5-(3,5-dimethylisoxazol-4-yl)-1H-pyrrolo[2,3-b]pyridin-3-yl)-3-(trifluoromethoxy)benzoic acid], the IC50 lay in the range of 1 to 8 µM.

One may read the IC50 as the point on the concentration scale where inhibition reaches its midpoint.
